{
  "source": "BindingDB's records for doi:10.1016/j.bmc.2019.115161",
  "about": "(Iwate University, 2019)",
  "key": {"[1]": {"assay": "Inhibition of caspase-like activity of beta1 subunit of 20S proteasome in human erythrocytes using Z-LLE-MCA as substrate preincubated with enzyme for 10 mins followed by substrate addition and measured after 3 hrs by fluorescence spectrophotometeric analysis"}, "[2]": {"assay": "Inhibition of trypsin-like activity of beta2 subunit of 20S proteasome in human erythrocytes using Boc-LRR-MCA as substrate preincubated with enzyme for 10 mins followed by substrate addition and measured after 3 hrs by fluorescence spectrophotometric analysis"}},
  "data": [
    {"smiles": "C=C1CC[C@H]2C(C)(C)[C@H](O)CC[C@]2(C)[C@H]1C[C@]12O[C@H]1[C@H](O)C(CO)=CC2=O", "values": [
      {"measurement": "IC50", "setting": "[1]", "value": "> 100", "unit": "µM"},
      {"measurement": "IC50", "setting": "[2]", "value": "> 100", "unit": "µM"}
    ]},
    {"smiles": "C=C1CC[C@H]2C(C)(C)[C@H](O)CC[C@]2(C)[C@H]1C[C@]12O[C@H]1C(=O)C(COC(=O)[C@H](O)[C@H](C)O)=CC2=O", "values": [
      {"measurement": "IC50", "setting": "[1]", "value": 5.2, "unit": "µM"},
      {"measurement": "IC50", "setting": "[2]", "value": 27.9, "unit": "µM"}
    ]},
    {"smiles": "C=C1CC[C@H]2C(C)(C)[C@H](O)CC[C@]2(C)[C@H]1C[C@]12O[C@H]1[C@H](O)C(COC(=O)[C@H](O)[C@H](C)O)=CC2=O", "values": [
      {"measurement": "IC50", "setting": "[1]", "value": 87.3, "unit": "µM"},
      {"measurement": "IC50", "setting": "[2]", "value": "> 100", "unit": "µM"}
    ]},
    {"smiles": "C=C1CC[C@H]2C(C)(C)[C@H](O)CC[C@]2(C)[C@H]1C[C@]12O[C@H]1[C@H](O)C(COC(=O)C[C@H](C)O)=CC2=O", "values": [
      {"measurement": "IC50", "setting": "[1]", "value": 30.1, "unit": "µM"},
      {"measurement": "IC50", "setting": "[2]", "value": "> 100", "unit": "µM"}
    ]},
    {"smiles": "C=C1CC[C@H]2C(C)(C)[C@H](O)CC[C@]2(C)[C@H]1C[C@]12O[C@H]1C(=O)C(CO)=CC2=O", "values": [
      {"measurement": "IC50", "setting": "[1]", "value": 17.8, "unit": "µM"},
      {"measurement": "IC50", "setting": "[2]", "value": 76.1, "unit": "µM"}
    ]},
    {"smiles": "C=C1CC[C@H]2C(C)(C)[C@H](O)CC[C@]2(C)[C@H]1C[C@]12O[C@H]1C(=O)C(COC(=O)C[C@H](C)O)=CC2=O", "values": [
      {"measurement": "IC50", "setting": "[1]", "value": 3.9, "unit": "µM"},
      {"measurement": "IC50", "setting": "[2]", "value": 22.5, "unit": "µM"}
    ]}
  ]
}
